PMC8160438, “A Novel Heptapeptide, GPPGPAG Transfers to the Brain, and Ameliorates Memory Dysfunction and Dendritic Atrophy in Alzheimer’s Disease Model Mice” (Frontiers in Pharmacology, 2021)
No end group written: not given here.

What was measured:
[1] = Cerebral cortex level after oral administration (brain penetration), LC-MS; format: in vivo, mouse
Method: Bioavailability and brain penetration of GPPGPAG was performed as previously described ([Yang et al., 2017]). GPPGPAG (500 mg) was dissolved in 750 μL of physiological saline. […] The mice were euthanized at 10, 60, and 180 min after administration. Blood was collected and centrifuged at 10,000 g and 4°C for 10 min to yield plasma. Plasma aliquots (200 μL) were extracted with methanol, dried, sonicated, and resolubilized in 50% methanol (100 μL). The cerebral cortex was also collected after complete saline perfusion for removing blood. The cortex was homogenized, extracted with methanol, dried, sonicated, and resolubilized in 50% methanol (100 µL). To calculate GPPGPAG concentration in the plasma and brain using liquid chromatography-mass spectrometry (LC-MS), a standard curve was generated by analyzing standard amounts of GPPGPAG solubilized in methanol at a dosage of 1, 5, and 10 μg/ml. A Thermo Scientific Accela high-performance LC (HPLC) system, interfaced with an LTQ Orbitrap XL hybrid Fourier Transform Mass Spectrometer (Thermo Fisher Scientific), was used to chemically profile GPPGPAG and the biosamples. The LC analysis was performed on a InertSustain AQ-C18 (4.6 mm ID × 50 mm, 5 μm, GL Sciences, Tokyo, Japan) held at 40°C with a flow rate of 200 μL/min 0.01% formic acid in water (a) and methanol (b) were used in the mobile phase, with the following linear elution gradient: 0–15 min, 10–90% b; 15–18 min, 90–10% b; 18–20 min, 10% b. The following electrospray interface (ESI) parameters were used: spray voltage, 4.5 kV; capillary voltage, […]; tube lens, 150 V; capillary temperature, 330°C; sheath gas flow rate, 50 units; aux gas flow rate, 10 units. […]
[…] (A) Total ion chromatogram (upper) and extracted ion current chromatogram (lower) of standard GPPGPAG (m/z = 552.2753) at 10 μg/ml for quantification of (B) and (C) data. […] In total ion chromatogram (upper) and extracted ion current chromatogram (lower) of m/z = 552.2753, no peaks were detected. […] In total ion chromatogram and extracted ion current chromatogram of m/z = 552.2753, peaks matching the retention time of GPPGPAG were detected. (D) Total ion chromatogram (upper) and extracted ion current chromatogram (lower) of standard GPPGPAG (m/z = 552.2716) at 10 μg/ml for quantification of (E) and (F) data. […] In total ion chromatogram (upper) and extracted ion current chromatogram (lower) of m/z = 552.2716, no peaks were detected. […] In total ion chromatogram and extracted ion current chromatogram of m/z = 552.2716, peaks matching the retention time of GPPGPAG were detected. Quantified amount of GPPGPAG in the plasma (G) and cerebral cortex (H) are shown. *p < 0.05, ****p < 0.0001 vs, saline 10 min, one-way ANOVA with post hoc Bonferroni’s test, mean ± standard error, n = 3 mice.

Stability in saline = format: physicochemical; conditions: 5 μg/ml, 37°C, 0, 10, 60, 180 min, LC-MS, n = 1
Method: For intraventricular administration, GPPGPAG was dissolved in artificial cerebrospinal fluid (ACSF; 130 mM NaCl, 24 mM NaHCO3, 3.5 mM KCl, 1.3 mM Na2HPO4, 2 mM CaCl2, 2 mM MgCl2 6H2O, and 10 mM glucose at pH 7.4) for use. GPPGPAG or ACSF was continuously injected for 28 days into the left ventricle (bregma: −0.2 mm, lateral: 1.0 mm, depth: −3.0 mm) using Alzet Osmotic Pump (1004, DURECT Corporation, CA, United States) and ALZET Brain Infusion Kit 3 (DURECT Corporation). Based on the amount of CSF produced which was 18 μL/h and the pump flow rate of 0.11 μL/h, the peptide in the pump was estimated to be diluted 164 times in the CSF to reach a final concentration 10 nM which was the effective dose in the cultured neuron experiments. Therefore 1.64 µM GPPGPAG was loaded into the pump. Stability of GPPGPAG in saline, mouse plasma and mouse cerebral cortex was confirmed by LC-MS quantification. GPPGPAG was mixed with saline or plasma at 5 μg/ml concentration. Otherwise, GPPGPAG was mixed with cortical lysate at 6.5 μg/g of cortex. After incubation at 37°C for 0, 10, 60, and 180 min, samples were dried up and served to LC-MS. Areas of MS peaks of GPPGPAG were quantified. […]
Stability of GPPGPAG in biological fluids.
(A) GPPGPAG was mixed with saline at 5 μg/ml concentration. (B) GPPGPAG was mixed with mouse plasma at 5 μg/ml concentration. […]

transferred amount in the brain ([1]; calculated for 10 mg/kg per orally from the cortex level at 500 mg/mouse): 0.598 pmol
tissue level at time at 3 h ([1]; cerebral cortex, po, 180 min after p.o. administration of 500 mg/mouse, ddY mice, female, LC-MS, mean of n = 3): 2750 ng/g
detection in the cerebral cortex ([1]; ddY mice, female, 8 weeks, 500 mg/mouse p.o. single dose, cortex after saline perfusion, LC-MS, n = 3): detected 10 min later
stability, amount remaining (MS peak area) (Stability in saline): not declined during 180 min-incubation
Substance: GPPGPAG [GPPGPAG]
detection in plasma and cerebral cortex ([1]; male mouse, 9 weeks old, p.o. administration, data not shown): similarly detected in the plasma and cerebral cortex
